In patent US20100099640A1, “TISSUE DEGENERATION PROTECTION” (priority 2007, published 2010):

Experiments:
hypertensive rats = conditions: direct intravenous injection; cited from earlier work
[1] = system: Chinese hypertensive men and women; conditions: cited from earlier work
[2] = Analysis of steviol metabolites in 24 h human urine after oral stevioside; assay type: in vivo
Procedure: Urine Fractionation and Derivatisation of steviol containing fractions. The total 24 h urine fraction (between 1124 and 2494 mL) form human subject subjected to a steviol treatment (three days of oral stevioside administration (750 mg per day)) was run over an Amberlite XAD-2 column at about 30 mL/min. The column bed volume was 200 mL which is sufficient for the adsorption of all amphipathic molecules in 24 h urine. The columns were then rinsed with 1 L of distilled water and then eluted with 400 mL MeOH:Acetone (50:50, v/v). The eluate was divided into 4 equal fractions and the solvent was evaporated at reduced pressure at 50° C.
Fractions containing steviol and/or dihydroisosteviol used as internal standard were completely dried; the residues were taken up in dry acetone and derivatized to form the 7-methoxy-coumarinyl esters as described (Minne, V. et al. J. Agr. Food Chem., 2004, 52, 2445-2449). […] After evaporation of the solvent, the residue was dissolved in a known amount of MeOH and HPLC was done using a fluorescence detector (λexc.: 321 nm, λem.: 391 nm) (Minne, V. et al. J. Agr. Food Chem., 2004, 52, 2445-2449). […]
Isolation of larger amounts of steviol glucuronide. […] Samples of each fraction were analysed by TLC using ethyl acetate:ethanol:water (80:30:20) as solvent and compared with steviol glucuronide as a reference compound. […]

[3] = system: mice with combined leptin and LDL-receptor deficiency (double knockout [DKO] mice); assay: Blood analyses (glucose, insulin, lipids, HOMA, adiponectin) in obese, dyslipidemic and diabetic DKO mice; assay type: in vivo, mouse
Excerpt: We measured the effect of stevioside on weight, blood variables (e.g. glucose, insulin, lipids), PPAR expression in adipose tissues, and on atherosclerosis in mice with combined leptin and LDL-receptor deficiency (double knockout [DKO] mice).
Homozygous LDL-receptor-knockout mice (LDLR^(−/−)), heterozygous ob/+, and C57BL6 mice were purchased from Jackson Laboratory, Bar Harbor, Me. LDLR^(−/−) mice were backcrossed into a C57BL6 background to the 10th generation. To obtain DKO mice with combined leptin deficiency (ob/ob) and LDL-receptor deficiency, LDLR^(−/−) and ob/+ mice were crossed. All offspring were genotyped by polymerase chain reaction (PCR) techniques. All mice were housed at 22° C. on a fixed 12/12-hour light/dark cycle. Experimental procedures in animals were performed in accordance with protocols approved by the Institutional Animal Care and Research Advisory Committee. All mice were fed standard chow containing 4% fat (Pavan Service). Food intake was ≈5.7 g/d. Mice (about 50 g) were treated with stevioside (N=14; 10 mg/kg), steviol (N=9; 5 mg/kg) or placebo (N=17) for 12 weeks between 12 and 24 weeks of age. Stevioside (Molecular weight: 804) was dissolved in water (1 mg/ml) and 500 μl of the solution was administered orally. Steviol (Molecular weight: 318) was dissolved in water containing 6% NaHCO3 (1 mg/ml) and 250 μl of the solution was administered orally.
Blood of conscious mice was collected by tail bleeding into EDTA tubes after an overnight fast. Plasma was obtained by centrifugation. Plasma cholesterol and triglycerides were measured by means of standard enzymatic colorimetric assays (Boehringer Mannheim), plasma fatty acids (FFA) by means of the FFA-Half Microtest kit (Roche Applied Science), glucose by means of a glucometer (Menarini Diagnostics), plasma insulin and adiponectin by means ELISAs (Mercodia and R&D, respectively). Insulin resistance was calculated by a homeostasis model assessment (HOMA)=fasting serum insulin (mU/L) times fasting blood glucose (mmol/L)/22.5.

anaesthetised dogs = conditions: 200 mg stevioside powder/kg peroral; cited from earlier work
[4] = stevioside 10 mg/kg or steviol 5 mg/kg orally, 12 weeks, compared with placebo mice
[5] = stevioside 10 mg/kg orally, 12 weeks, compared to baseline levels

free steviol in urine ([2]; after oral stevioside, human urine): no free steviol can be detected
SMILES: C=C1C[C@@]23CC[C@H]4C(C)(CCC[C@@]4(C)C(=O)O[C@@H]4O[C@H](CO)C(O)[C@H](O)C4O)[C@@H]2CCC1(OC1O[C@H](CO)C(O)C(O)C1OC1O[C@H](CO)C(O)[C@H](O)C1O)C3 (stereo in doubt) [stevioside, Kaur-16-en-18-oic acid, 13-[(2-O-b-D-glucopyranosyl-b-D-glucopyranosyl)oxy]-, b-D-glucopyranosyl ester, (4a)-]
blood pressure (hypertensive rats): blood pressure reduction
lowering of systolic and diastolic blood pressure ([1]; 750 mg or 1500 mg of stevioside a day for one or two years): about 7%
fasting glucose concentrations ([1]; long-term administration, volunteers with normal glucose levels): did not reveal effects
metabolite detected in the collected urine ([2]; three days of oral stevioside (750 mg per day), 24 h urine): steviol glucuronide was isolated as the only metabolite detected
plasma concentration of adiponectin ([3]; after 12 weeks of treatment, before treatment 4729±1652, P=0.003): 6517 ± 1472 ng/mL
FFA level [3, 4]: significantly lower
HOMA values (insulin resistance) [3, 4]: significantly lower
cholesterol level [3, 4]: significantly lower
glucose level [3, 4]: significantly lower
insulin level [3, 4]: significantly lower
triglyceride level [3, 4]: significantly lower
FFA [3, 5]: reduced
cholesterol [3, 5]: reduced
glucose [3, 5]: reduced
insulin [3, 5]: reduced
triglycerides [3, 5]: reduced
insulin sensitivity ([3]; stevioside 10 mg/kg orally, 12 weeks, result of the decrease in glucose and insulin): increase
blood pressure (anaesthetised dogs): short-term blood pressure reduction
